Data: patent publication US12528761B2, “Thyromimetics” (Autobahn Therapeutics, Inc., priority 2020, dated 2026)

Biological target: T1, recombinant human FAAH (rhFAAH) (Homo sapiens, UniProt O00519)
T1 construct: purchased Cayman Chemical (Ann Arbor, MI, USA)
T1 sequence (O00519 1-579): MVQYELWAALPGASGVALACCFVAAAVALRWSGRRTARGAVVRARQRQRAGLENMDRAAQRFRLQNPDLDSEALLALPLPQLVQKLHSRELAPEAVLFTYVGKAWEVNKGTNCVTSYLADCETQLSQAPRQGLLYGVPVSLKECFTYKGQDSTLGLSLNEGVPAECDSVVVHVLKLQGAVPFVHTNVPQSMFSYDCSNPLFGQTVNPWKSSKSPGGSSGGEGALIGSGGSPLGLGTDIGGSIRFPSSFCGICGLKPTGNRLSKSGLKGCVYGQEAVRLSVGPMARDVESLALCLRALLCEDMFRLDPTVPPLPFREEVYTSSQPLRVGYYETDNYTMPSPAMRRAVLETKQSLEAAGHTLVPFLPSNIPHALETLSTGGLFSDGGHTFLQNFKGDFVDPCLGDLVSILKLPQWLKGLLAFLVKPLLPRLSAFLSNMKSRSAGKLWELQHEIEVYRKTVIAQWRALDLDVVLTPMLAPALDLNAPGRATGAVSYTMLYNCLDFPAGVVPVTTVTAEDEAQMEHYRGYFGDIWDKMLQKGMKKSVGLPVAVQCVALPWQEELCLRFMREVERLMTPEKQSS
Assay: FAAH substrate evaluation (formation of acid metabolite, LC-MS/MS)
Assay type: biochemical
Design: key: A: ke is equal to or less than 1.0; B: ke is greater than 1.0 and less than or equal to 2.5; C: ke is greater than 2.5; NC: no conversion
Details: 0.5 ng/μL rhFAAH, 1 μM test compound, pH 8.0, room temperature, 0-60 minutes
Method: Purified recombinant human FAAH (rhFAAH) was purchased from Cayman Chemical (Ann Arbor, MI, USA). The total volume for each incubation was 400 μL containing a final 0.5 ng/μL rhFAAH, 1 μM test compound, 1.25% ethanol or 1 μM PF-3845 (FAAH inhibitor), and 0.1% bovine serum albumin in Tris-EDTA buffer at pH 8.0). The positive control was LL-341001. The incubation was conducted at the room temperature. At 0, 5, 15, 30 and 60 minutes, an aliquot of 30 μL reaction mixtures was removed and mixed with 300 μL acetonitrile containing 5 ng/mL terfenadine and 10 ng/mL tolbutamide as internal standards to quench the reaction. The resulting mixture was centrifuged at 4000 rpm, 4° C. for 15 minutes, and 100 μL supernatant was ready for LC-MS/MS analysis to measure the formation of acid metabolite.
Acquity Ultra Performance LC system from Waters was used for sample analysis. The chromatography was performed on a reverse phase Kinetex 2.6 μm C18 column, 2.1×30 mm, 100 Å. The mobile phase A comprised of 0.1% formic acid in water and mobile phase B comprised of 0.1% formic acid in acetonitrile with a 2-min run time at the flow rate of 0.8 mL/min for the acid metabolite from positive control or a 1.5 min run time at the flow rate of 0.9 mL/min for the acid metabolite of test compounds. The mass spectrometer (API-5500 and API Q Trap 4000 Applied Biosystems/MDS SCIEX Instruments, Framingham, MA, USA) was operated under ESI positive or negative ion MRM mode.
The formation of acid metabolite was monitored and quantified using one calibration point of 1 μM. The observed rate constant (ke) for the acid metabolite formation was calculated by plotting the metabolite concentration versus time of incubation with the slope being ke and is shown in Table 4.

SMILES	ke, observed rate constant for the acid metabolite formation
CC(C)c1cc(Cc2c(Cl)cc(SCC(=O)NC34CC(C3)C4)cc2Cl)ccc1O [Compound 178, N-(bicyclo[1.1.1]pentan-1-yl)-2-((3,5-dichloro-4-(4-hydroxy-3-isopropylbenzyl)phenyl)thio)acetamide]	NC
CNC(=O)CSc1cc(Cl)c(Cc2ccc(O)c(C(C)C)c2)c(Cl)c1F [Compound 190, 2-((3,5-dichloro-2-fluoro-4-(4-hydroxy-3-isopropylbenzyl)phenyl)thio)-N-methylacetamide]	B (ke is greater than 1.0 and less than or equal to 2.5)
CNC(=O)CNc1cc(Cl)c(Cc2ccc(O)c(C(C)C)c2)c(Cl)c1F [Compound 76, 2-((3,5-dichloro-2-fluoro-4-(4-hydroxy-3-isopropylbenzyl)phenyl)amino)-N-methylacetamide]	A (ke is equal to or less than 1.0)
Cc1noc(NC(=O)CSc2cc(Cl)c(Cc3ccc(O)c(C(C)C)c3)c(Cl)c2)c1C [Compound 168, 2-((3,5-dichloro-4-(4-hydroxy-3-isopropylbenzyl)phenyl)thio)-N-(3,4-dimethylisoxazol-5-yl)acetamide]	B (ke is greater than 1.0 and less than or equal to 2.5)
CNC(=O)CNc1cc(Cl)c(Cc2ccc(O)c(C(C)C)c2F)c(Cl)c1F [Compound 79, 2-((3,5-dichloro-2-fluoro-4-(2-fluoro-4-hydroxy-3-isopropylbenzyl)phenyl)amino)-N-methylacetamide]	A (ke is equal to or less than 1.0)
CC(C)c1c(O)ccc(Cc2c(Cl)cc(NCC(=O)Nc3cccnc3)c(F)c2Cl)c1F [Compound 160, 2-((3,5-dichloro-2-fluoro-4-(2-fluoro-4-hydroxy-3-isopropylbenzyl)phenyl)amino)-N-(pyridin-3-yl)acetamide]	B (ke is greater than 1.0 and less than or equal to 2.5)
Cc1cc(CSCC(=O)N2CCC2)cc(Cl)c1Cc1ccc(O)c(C(C)C)c1 [Compound 228, 1-(azetidin-1-yl)-2-((3-chloro-4-(4-hydroxy-3-isopropylbenzyl)-5-methylbenzyl)thio)ethan-1-one]	A (ke is equal to or less than 1.0)
CNC(=O)CSc1cc(C)c(Cc2ccc(O)c(C(C)C)c2F)c(Cl)c1 [Compound 233, 2-((3-chloro-4-(2-fluoro-4-hydroxy-3-isopropylbenzyl)-5-methylphenyl)thio)-N-methylacetamide]	C (ke is greater than 2.5)
CC(C)c1cc(Cc2c(Cl)cc(SCC(=O)Nc3ccncc3)cc2Cl)ccc1O [Compound 172, 2-((3,5-dichloro-4-(4-hydroxy-3-isopropylbenzyl)phenyl)thio)-N-(pyridin-4-yl)acetamide]	C (ke is greater than 2.5)
CC(C)c1c(O)ccc(Cc2c(Cl)cc(NCC(N)=O)c(F)c2Cl)c1F [Compound 163, 2-((3,5-dichloro-2-fluoro-4-(2-fluoro-4-hydroxy-3-isopropylbenzyl)phenyl)amino)acetamide]	A (ke is equal to or less than 1.0)
CNC(=O)CCc1cc(C)c(Cc2ccc(O)c(C(C)C)c2F)c(Cl)c1 [Compound 236, 3-(3-chloro-4-(2-fluoro-4-hydroxy-3-isopropylbenzyl)-5-methylphenyl)-N-methylpropanamide]	B (ke is greater than 1.0 and less than or equal to 2.5)
CC(C)c1cc(Cc2c(Cl)cc(SCC(=O)Nc3cnccn3)cc2Cl)ccc1O [Compound 171, 2-((3,5-dichloro-4-(4-hydroxy-3-isopropylbenzyl)phenyl)thio)-N-(pyrazin-2-yl)acetamide]	B (ke is greater than 1.0 and less than or equal to 2.5)
CC(C)c1c(O)ccc(Cc2c(Cl)cc(NCC(=O)Nc3ccncc3)c(F)c2Cl)c1F [Compound 161, 2-((3,5-dichloro-2-fluoro-4-(2-fluoro-4-hydroxy-3-isopropylbenzyl)phenyl)amino)-N-(pyridin-4-yl)acetamide]	B (ke is greater than 1.0 and less than or equal to 2.5)
Cc1cc(CSCC(=O)Nc2cccnn2)cc(Cl)c1Cc1ccc(O)c(C(C)C)c1 [Compound 230, 2-((3-chloro-4-(4-hydroxy-3-isopropylbenzyl)-5-methylbenzyl)thio)-N-(pyridazin-3-yl)acetamide]	B (ke is greater than 1.0 and less than or equal to 2.5)
CNC(=O)CNc1cc(C)c(Cc2ccc(O)c(C(C)C)c2F)c(Cl)c1 [Compound 235, 2-((3-chloro-4-(2-fluoro-4-hydroxy-3-isopropylbenzyl)-5-methylphenyl)amino)-N-methylacetamide]	A (ke is equal to or less than 1.0)
CC(C)CNC(=O)CSc1cc(Cl)c(Cc2ccc(O)c(C(C)C)c2)c(Cl)c1 [Compound 185, 2-((3,5-dichloro-4-(4-hydroxy-3-isopropylbenzyl)phenyl)thio)-N-isobutylacetamide]	NC
CNC(=O)/C=C/c1cc(C)c(Cc2ccc(O)c(C(C)C)c2F)c(Cl)c1 [Compound 239, (E)-3-(3-chloro-4-(2-fluoro-4-hydroxy-3-isopropylbenzyl)-5-methylphenyl)-N-methylacrylamide]	NC
CNC(=O)CSc1cc(C)c(Cc2ccc(O)c(C(C)C)c2)c(Cl)c1 [Compound 242, 2-((3-chloro-4-(4-hydroxy-3-isopropylbenzyl)-5-methylphenyl)thio)-N-methylacetamide]	B (ke is greater than 1.0 and less than or equal to 2.5)
CNC(=O)CSCc1cc(C)c(Cc2ccc(O)c(C(C)C)c2)c(Cl)c1 [Compound 241, 2-((3-chloro-4-(4-hydroxy-3-isopropylbenzyl)-5-methylbenzyl)thio)-N-methylacetamide]	B (ke is greater than 1.0 and less than or equal to 2.5)
Cc1cc(CSCC(N)=O)cc(Cl)c1Cc1ccc(O)c(C(C)C)c1 [Compound 232, 2-((3-chloro-4-(4-hydroxy-3-isopropylbenzyl)-5-methylbenzyl)thio)acetamide]	C (ke is greater than 2.5)
CNC(=O)CSc1cc(Cl)c(Cc2ccc(O)c(C(C)C)c2)c(Cl)c1 [Compound 195, 2-((3,5-dichloro-4-(4-hydroxy-3-isopropylbenzyl)phenyl)thio)-N-methylacetamide]	B (ke is greater than 1.0 and less than or equal to 2.5)
CNC(=O)CCc1cc(Cl)c(Cc2ccc(O)c(C(C)C)c2)c(Cl)c1F [Compound 66, 3-(3,5-dichloro-2-fluoro-4-(4-hydroxy-3-isopropylbenzyl)phenyl)-N-methylpropanamide]	A (ke is equal to or less than 1.0)
CC(C)c1cc(Cc2c(Cl)cc(SCC(=O)NC3CC3)cc2Cl)ccc1O [Compound 180, N-cyclopropyl-2-((3,5-dichloro-4-(4-hydroxy-3-isopropylbenzyl)phenyl)thio)acetamide]	C (ke is greater than 2.5)
CCNC(=O)CNc1cc(Cl)c(Cc2ccc(O)c(C(C)C)c2F)c(Cl)c1F [Compound 165, 2-((3,5-dichloro-2-fluoro-4-(2-fluoro-4-hydroxy-3-isopropylbenzyl)phenyl)amino)-N-ethylacetamide]	A (ke is equal to or less than 1.0)
CC(C)c1cc(Cc2c(Cl)cc(SCC(=O)N3CCCC3)cc2Cl)ccc1O [Compound 182, 2-((3,5-dichloro-4-(4-hydroxy-3-isopropylbenzyl)phenyl)thio)-1-(pyrrolidin-1-yl)ethan-1-one]	A (ke is equal to or less than 1.0)
